Test results published in the supplement of paper PMC10307832.

Experiments:
Assay in all cases: relative viability (nuclei count vs DMSO), 5 days (fraction); higher = more cells survive
Omipalisib + Pictilisib = compound: COc1ncc(-c2ccc3nccc(-c4ccnnc4)c3c2)cc1NS(=O)(=O)c1ccc(F)cc1F [Omipalisib] + CS(=O)(=O)N1CCN(Cc2cc3nc(-c4cccc5[nH]ncc45)nc(N4CCOCC4)c3s2)CC1 [Pictilisib] (partner 1 µM)
Outline: (§1)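 One day after seeding in 1536-well plates, lung cancer cell lines were dosed by pin tool. Dosing was either single-drug or a fixed anchor-drug dose plus five library-drug doses (not always all listed) in √10 steps. After 5 days, nuclei were stained in one fix-and-stain step and counted on 4× images, and relative viability is the nuclei count of treated wells over that of vehicle wells, given as the median of duplicate plates.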

Omipalisib + Navitoclax = compound: COc1ncc(-c2ccc3nccc(-c4ccnnc4)c3c2)cc1NS(=O)(=O)c1ccc(F)cc1F [Omipalisib] + CC1(C)CCC(c2ccc(Cl)cc2)=C(CN2CCN(c3ccc(C(=O)NS(=O)(=O)c4ccc(N[C@H](CCN5CCOCC5)CSc5ccccc5)c(S(=O)(=O)C(F)(F)F)c4)cc3)CC2)C1 [Navitoclax] (partner 0.5 µM)
Outline: as §1

Omipalisib + Foretinib = compound: COc1ncc(-c2ccc3nccc(-c4ccnnc4)c3c2)cc1NS(=O)(=O)c1ccc(F)cc1F [Omipalisib] + COc1cc2c(Oc3ccc(NC(=O)C4(C(=O)Nc5ccc(F)cc5)CC4)cc3F)ccnc2cc1OCCCN1CCOCC1 [Foretinib] (partner 0.25 µM)
Outline: as §1

Omipalisib + Bortezomib = compound: COc1ncc(-c2ccc3nccc(-c4ccnnc4)c3c2)cc1NS(=O)(=O)c1ccc(F)cc1F [Omipalisib] + CC(C)C[C@H](NC(=O)[C@H](Cc1ccccc1)NC(=O)c1cnccn1)B(O)O [Bortezomib] (partner 0.002 µM)
Outline: as §1

Omipalisib + Alpelisib = compound: COc1ncc(-c2ccc3nccc(-c4ccnnc4)c3c2)cc1NS(=O)(=O)c1ccc(F)cc1F [Omipalisib] + Cc1nc(NC(=O)N2CCC[C@H]2C(N)=O)sc1-c1ccnc(C(C)(C)C(F)(F)F)c1 [Alpelisib] (partner 2 µM)
Outline: as §1

Omipalisib + Lapatinib = compound: COc1ncc(-c2ccc3nccc(-c4ccnnc4)c3c2)cc1NS(=O)(=O)c1ccc(F)cc1F [Omipalisib] + CS(=O)(=O)CCNCc1ccc(-c2ccc3ncnc(Nc4ccc(OCc5cccc(F)c5)c(Cl)c4)c3c2)o1 [Lapatinib] (partner 2 µM)
Outline: as §1

Omipalisib + Olaparib = compound: COc1ncc(-c2ccc3nccc(-c4ccnnc4)c3c2)cc1NS(=O)(=O)c1ccc(F)cc1F [Omipalisib] + O=C(c1cc(Cc2n[nH]c(=O)c3ccccc23)ccc1F)N1CCN(C(=O)C2CC2)CC1 [Olaparib] (partner 8 µM)
Outline: as §1

Omipalisib + Linsitinib = compound: COc1ncc(-c2ccc3nccc(-c4ccnnc4)c3c2)cc1NS(=O)(=O)c1ccc(F)cc1F [Omipalisib] + C[C@]1(O)C[C@@H](c2nc(-c3ccc4ccc(-c5ccccc5)nc4c3)c3c(N)nccn32)C1 [Linsitinib] (partner 1 µM)
Outline: as §1

Omipalisib + Crizotinib = compound: COc1ncc(-c2ccc3nccc(-c4ccnnc4)c3c2)cc1NS(=O)(=O)c1ccc(F)cc1F [Omipalisib] + C[C@@H](Oc1cc(-c2cnn(C3CCNCC3)c2)cnc1N)c1c(Cl)ccc(F)c1Cl [Crizotinib] (partner 1 µM)
Outline: as §1

Omipalisib = compound: COc1ncc(-c2ccc3nccc(-c4ccnnc4)c3c2)cc1NS(=O)(=O)c1ccc(F)cc1F [Omipalisib]
Outline: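 Viability was read as treated-well nuclei divided by vehicle-well nuclei, using the median across plates. Lung cancer cell lines in 1536-well plates were kept overnight at 37 °C, pinned with five √10-spaced library-drug doses, and after 5 days were Hoechst-stained, imaged at 4× and counted in MetaXpress. Plates passed only with control CV below 25% and at least one doubling.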

Omipalisib + Palbociclib = compound: COc1ncc(-c2ccc3nccc(-c4ccnnc4)c3c2)cc1NS(=O)(=O)c1ccc(F)cc1F [Omipalisib] + CC(=O)c1c(C)c2cnc(Nc3ccc(N4CCNCC4)cn3)nc2n(C2CCCC2)c1=O [Palbociclib] (partner 0.5 µM)
Outline: as §1

Omipalisib + OSI-027 = compound: COc1ncc(-c2ccc3nccc(-c4ccnnc4)c3c2)cc1NS(=O)(=O)c1ccc(F)cc1F [Omipalisib] + COc1cccc2cc(-c3nc([C@H]4CC[C@H](C(=O)O)CC4)n4ncnc(N)c34)[nH]c12 [OSI-027] (partner 0.5 µM)
Outline: as §1

Omipalisib + Dasatinib = compound: COc1ncc(-c2ccc3nccc(-c4ccnnc4)c3c2)cc1NS(=O)(=O)c1ccc(F)cc1F [Omipalisib] + Cc1nc(Nc2ncc(C(=O)Nc3c(C)cccc3Cl)s2)cc(N2CCN(CCO)CC2)n1 [Dasatinib] (partner 0.075 µM)
Outline: as §1

Omipalisib + Tozasertib = compound: COc1ncc(-c2ccc3nccc(-c4ccnnc4)c3c2)cc1NS(=O)(=O)c1ccc(F)cc1F [Omipalisib] + Cc1cc(Nc2cc(N3CCN(C)CC3)nc(Sc3ccc(NC(=O)C4CC4)cc3)n2)n[nH]1 [Tozasertib] (partner 0.1 µM)
Outline: as §1

Omipalisib + Vorinostat = compound: COc1ncc(-c2ccc3nccc(-c4ccnnc4)c3c2)cc1NS(=O)(=O)c1ccc(F)cc1F [Omipalisib] + O=C(CCCCCCC(=O)Nc1ccccc1)NO [Vorinostat] (partner 1 µM)
Outline: as §1

Omipalisib + Luminespib = compound: COc1ncc(-c2ccc3nccc(-c4ccnnc4)c3c2)cc1NS(=O)(=O)c1ccc(F)cc1F [Omipalisib] + CCNC(=O)c1noc(-c2cc(C(C)C)c(O)cc2O)c1-c1ccc(CN2CCOCC2)cc1 [Luminespib] (partner 0.01 µM)
Outline: as §1

Omipalisib + Trametinib = compound: COc1ncc(-c2ccc3nccc(-c4ccnnc4)c3c2)cc1NS(=O)(=O)c1ccc(F)cc1F [Omipalisib] + CC(=O)Nc1cccc(-n2c(=O)n(C3CC3)c(=O)c3c(Nc4ccc(I)cc4F)n(C)c(=O)c(C)c32)c1 [Trametinib] (partner 0.02 µM)
Outline: as §1

Omipalisib + AZD7762 = compound: COc1ncc(-c2ccc3nccc(-c4ccnnc4)c3c2)cc1NS(=O)(=O)c1ccc(F)cc1F [Omipalisib] + NC(=O)Nc1cc(-c2cccc(F)c2)sc1C(=O)N[C@H]1CCCNC1 [AZD7762] (partner 0.2 µM)
Outline: as §1

Omipalisib + Decitabine = compound: COc1ncc(-c2ccc3nccc(-c4ccnnc4)c3c2)cc1NS(=O)(=O)c1ccc(F)cc1F [Omipalisib] + Nc1ncn([C@H]2C[C@H](O)[C@@H](CO)O2)c(=O)n1 [Decitabine] (partner 2 µM)
Outline: as §1

Omipalisib + Pemetrexed = compound: COc1ncc(-c2ccc3nccc(-c4ccnnc4)c3c2)cc1NS(=O)(=O)c1ccc(F)cc1F [Omipalisib] + Nc1nc2[nH]cc(CCc3ccc(C(=O)N[C@@H](CCC(=O)O)C(=O)O)cc3)c2c(=O)[nH]1 [Pemetrexed] (partner 0.2 µM)
Outline: as §1

Omipalisib + Phenformin = compound: COc1ncc(-c2ccc3nccc(-c4ccnnc4)c3c2)cc1NS(=O)(=O)c1ccc(F)cc1F [Omipalisib] + N=C(N)NC(=N)NCCc1ccccc1 [Phenformin] (partner 250 µM)
Outline: as §1

EBC-1
relative viability (Omipalisib + Pictilisib; first compound 0.0003 µM): 0.428
relative viability (Omipalisib + Pictilisib; first compound 0.003 µM): 0.395
relative viability (Omipalisib + Pictilisib; first compound 0.03 µM): 0.191
relative viability (Omipalisib + Navitoclax; first compound 0.0003 µM): 0.337
relative viability (Omipalisib + Navitoclax; first compound 0.003 µM): 0.243
relative viability (Omipalisib + Navitoclax; first compound 0.03 µM): 0.137
relative viability (Omipalisib + Foretinib; first compound 0.0003 µM): 0.114
relative viability (Omipalisib + Foretinib; first compound 0.003 µM): 0.102
relative viability (Omipalisib + Foretinib; first compound 0.03 µM): 0.0896
relative viability (Omipalisib + Bortezomib; first compound 0.0003 µM): 0.605
relative viability (Omipalisib + Bortezomib; first compound 0.003 µM): 0.549
relative viability (Omipalisib + Bortezomib; first compound 0.03 µM): 0.263
relative viability (Omipalisib + Alpelisib; first compound 0.0003 µM): 0.906
relative viability (Omipalisib + Alpelisib; first compound 0.003 µM): 0.692
relative viability (Omipalisib + Alpelisib; first compound 0.03 µM): 0.259
relative viability (Omipalisib + Lapatinib; first compound 0.0003 µM): 0.211
relative viability (Omipalisib + Lapatinib; first compound 0.003 µM): 0.216
relative viability (Omipalisib + Lapatinib; first compound 0.03 µM): 0.202
relative viability (Omipalisib + Olaparib; first compound 0.0003 µM): 0.67
relative viability (Omipalisib + Olaparib; first compound 0.003 µM): 0.57
relative viability (Omipalisib + Olaparib; first compound 0.03 µM): 0.193
relative viability (Omipalisib + Linsitinib; first compound 0.0003 µM): 0.822
relative viability (Omipalisib + Linsitinib; first compound 0.003 µM): 0.521
relative viability (Omipalisib + Linsitinib; first compound 0.03 µM): 0.405
relative viability (Omipalisib + Crizotinib; first compound 0.0003 µM): 0.218
relative viability (Omipalisib + Crizotinib; first compound 0.003 µM): 0.183
relative viability (Omipalisib + Crizotinib; first compound 0.03 µM): 0.212
relative viability (Omipalisib; 0.0003 µM): 0.957
relative viability (Omipalisib; 0.003 µM): 0.821
relative viability (Omipalisib; 0.03 µM): 0.325

NCI-H522
relative viability (Omipalisib + Palbociclib; first compound 0.0003 µM): 1.01
relative viability (Omipalisib + Palbociclib; first compound 0.003 µM): 0.823
relative viability (Omipalisib + Palbociclib; first compound 0.03 µM): 0.532
relative viability (Omipalisib + OSI-027; first compound 0.0003 µM): 0.69
relative viability (Omipalisib + OSI-027; first compound 0.003 µM): 0.641
relative viability (Omipalisib + OSI-027; first compound 0.03 µM): 0.531
relative viability (Omipalisib + Dasatinib; first compound 0.0003 µM): 0.857
relative viability (Omipalisib + Dasatinib; first compound 0.003 µM): 0.745
relative viability (Omipalisib + Dasatinib; first compound 0.03 µM): 0.626
relative viability (Omipalisib + Tozasertib; first compound 0.0003 µM): 0.515
relative viability (Omipalisib + Tozasertib; first compound 0.003 µM): 0.451
relative viability (Omipalisib + Tozasertib; first compound 0.03 µM): 0.438
relative viability (Omipalisib + Vorinostat; first compound 0.0003 µM): 0.837
relative viability (Omipalisib + Vorinostat; first compound 0.003 µM): 0.766
relative viability (Omipalisib + Vorinostat; first compound 0.03 µM): 0.724
relative viability (Omipalisib + Luminespib; first compound 0.0003 µM): 1.04
relative viability (Omipalisib + Luminespib; first compound 0.003 µM): 1.89
relative viability (Omipalisib + Luminespib; first compound 0.03 µM): 0.652
relative viability (Omipalisib + Trametinib; first compound 0.0003 µM): 0.746
relative viability (Omipalisib + Trametinib; first compound 0.003 µM): 0.604
relative viability (Omipalisib + Trametinib; first compound 0.03 µM): 0.443
relative viability (Omipalisib + AZD7762; first compound 0.0003 µM): 0.652
relative viability (Omipalisib + AZD7762; first compound 0.003 µM): 0.58
relative viability (Omipalisib + AZD7762; first compound 0.03 µM): 0.839
relative viability (Omipalisib + Decitabine; first compound 0.0003 µM): 0.665
relative viability (Omipalisib + Decitabine; first compound 0.003 µM): 0.596
relative viability (Omipalisib + Decitabine; first compound 0.03 µM): 0.595
relative viability (Omipalisib + Olaparib; first compound 0.0003 µM): 0.532
relative viability (Omipalisib + Olaparib; first compound 0.003 µM): 0.614
relative viability (Omipalisib + Olaparib; first compound 0.03 µM): 0.505
relative viability (Omipalisib + Pemetrexed; first compound 0.0003 µM): 0.963
relative viability (Omipalisib + Pemetrexed; first compound 0.003 µM): 0.932
relative viability (Omipalisib + Pemetrexed; first compound 0.03 µM): 0.636
relative viability (Omipalisib + Phenformin; first compound 0.0003 µM): 0.604
relative viability (Omipalisib + Phenformin; first compound 0.003 µM): 0.559
relative viability (Omipalisib + Phenformin; first compound 0.03 µM): 0.583
relative viability (Omipalisib; 0.0003 µM): 0.838
relative viability (Omipalisib; 0.003 µM): 0.912
relative viability (Omipalisib; 0.03 µM): 0.694
